How the values were obtained:
PLA2-II = biological target: T1, PLA2-II (Crotalus atrox, UniProt P00624); experiment: Enzyme assay Phospholipase PLA2-II; format: biochemical; settings: 300 μM; significance >50%
T1 construct: Source: Crotalus atrox; from tissue
T1 sequence (P00624 17-138): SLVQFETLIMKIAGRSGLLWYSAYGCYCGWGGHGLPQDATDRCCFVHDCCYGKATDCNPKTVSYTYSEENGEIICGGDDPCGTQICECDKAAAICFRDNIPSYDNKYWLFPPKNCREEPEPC
Experimental: 8. Phospholipase PLA2-II (Katsumata et al., 1986, Anal. Biochem. 154:676-681).
Substrate: 0.03 μCi 1 -Palmitoyl-2-[1-^14C]oleoyl-3-phosphatidylcholine
Pre-Incubation Time/Temp: 5 minutes at 37° C.
Incubation Time/Temp: 5 minutes at 37° C.
Incubation Buffer: 0.1M glycine-NaOH, […], pH 9.0
Quantitation Method: Quantitation of [^14C]oleate
Significance Criteria: >50% of max stimulation or inhibition

PLC = biological target: T2, PLC (Bacillus cereus, UniProt P09598); experiment: Enzyme assay Phospholipase PLC; format: biochemical; settings: 10 μM
T2 construct: Source: Bacillus cereus; host or cells: Bacillus cereus
T2 sequence (P09598 39-283 limits assumed): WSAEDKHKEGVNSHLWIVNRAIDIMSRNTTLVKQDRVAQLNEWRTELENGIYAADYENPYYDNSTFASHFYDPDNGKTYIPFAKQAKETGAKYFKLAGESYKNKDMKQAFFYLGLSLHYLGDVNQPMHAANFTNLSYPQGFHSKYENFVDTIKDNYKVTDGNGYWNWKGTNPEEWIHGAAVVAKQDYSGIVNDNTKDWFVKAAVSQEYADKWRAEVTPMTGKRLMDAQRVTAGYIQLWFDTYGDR
Experimental: 9. Phospholipase PLC (Hergenrother et al, 1995, Anal. Biochem. 229:313-316).
Substrate: 400 μM 1,2-Dihexanoyl sn-glycerol-3-phosphocholine
Pre-Incubation Time/Temp: 10 minutes at 37° C.
Incubation Time/Temp: 5 minutes at 37 ° C.
Incubation Buffer: 0.1 M 3,3-dimethylglutaric acid, pH 7.3
Quantitation Method: Spectrophotometric quantitation of phosphorylcholine

human Edg-4 receptor [1] = experiment: Calcium mobilization assay (FLIPR), HTC rat hepatoma cells transfected with human Edg-4; format: cell-based; settings: antagonists; Edg-4 relative to other Edg receptors
Text: (§1) LPA receptors such as Edg-4, couple to calcium effector pathways, and result in increases in intracellular calcium following receptor activation (An et al., Molecular Pharmacology, 54:881-888, 1998, incorporated herein by reference). This biological response lends itself to a very efficient, high-throughput screen using a Fluorescence Imaging Plate Reader (FLIPR; Molecular Devices, Sunnyvale, Calif.). The FLIPR system is a real-time, cell-based assay system with continuous fluorescence detection using a cooled CCD camera. The FLIPR system was used to developing an Edg-4 receptor screen. Rat hepatoma cells stably expressing Edg-4 receptor were plated on 384-well plates and loaded with a calcium dye loading kit (Molecular Devices, Sunnyvale, Calif.) for 1 hour at room temperature. Cells were then placed on the FLIPR^354 (Molecular Devices, Sunnyvale, Calif.) and excited by an argon laser at 488 nm. The data for the entire 384-well plate was updated every second. An integrated robotic pipettor allowed for simultaneous compound addition into each individual well in the plate.

Potassium channel [KATP] = biological target: T3, Potassium channel [KATP] (Cricetus cricetus, UniProt Q09427); experiment: Radioligand binding Potassium Channel [KATP]; set-up: species or system Syrian hamster; settings: 10 μM; significance ≧50%
T3 construct: endogenous in cells; host or cells: HIT-T15 Syrian hamster pancreatic beta cells
T3 sequence (Q09427 whole entry): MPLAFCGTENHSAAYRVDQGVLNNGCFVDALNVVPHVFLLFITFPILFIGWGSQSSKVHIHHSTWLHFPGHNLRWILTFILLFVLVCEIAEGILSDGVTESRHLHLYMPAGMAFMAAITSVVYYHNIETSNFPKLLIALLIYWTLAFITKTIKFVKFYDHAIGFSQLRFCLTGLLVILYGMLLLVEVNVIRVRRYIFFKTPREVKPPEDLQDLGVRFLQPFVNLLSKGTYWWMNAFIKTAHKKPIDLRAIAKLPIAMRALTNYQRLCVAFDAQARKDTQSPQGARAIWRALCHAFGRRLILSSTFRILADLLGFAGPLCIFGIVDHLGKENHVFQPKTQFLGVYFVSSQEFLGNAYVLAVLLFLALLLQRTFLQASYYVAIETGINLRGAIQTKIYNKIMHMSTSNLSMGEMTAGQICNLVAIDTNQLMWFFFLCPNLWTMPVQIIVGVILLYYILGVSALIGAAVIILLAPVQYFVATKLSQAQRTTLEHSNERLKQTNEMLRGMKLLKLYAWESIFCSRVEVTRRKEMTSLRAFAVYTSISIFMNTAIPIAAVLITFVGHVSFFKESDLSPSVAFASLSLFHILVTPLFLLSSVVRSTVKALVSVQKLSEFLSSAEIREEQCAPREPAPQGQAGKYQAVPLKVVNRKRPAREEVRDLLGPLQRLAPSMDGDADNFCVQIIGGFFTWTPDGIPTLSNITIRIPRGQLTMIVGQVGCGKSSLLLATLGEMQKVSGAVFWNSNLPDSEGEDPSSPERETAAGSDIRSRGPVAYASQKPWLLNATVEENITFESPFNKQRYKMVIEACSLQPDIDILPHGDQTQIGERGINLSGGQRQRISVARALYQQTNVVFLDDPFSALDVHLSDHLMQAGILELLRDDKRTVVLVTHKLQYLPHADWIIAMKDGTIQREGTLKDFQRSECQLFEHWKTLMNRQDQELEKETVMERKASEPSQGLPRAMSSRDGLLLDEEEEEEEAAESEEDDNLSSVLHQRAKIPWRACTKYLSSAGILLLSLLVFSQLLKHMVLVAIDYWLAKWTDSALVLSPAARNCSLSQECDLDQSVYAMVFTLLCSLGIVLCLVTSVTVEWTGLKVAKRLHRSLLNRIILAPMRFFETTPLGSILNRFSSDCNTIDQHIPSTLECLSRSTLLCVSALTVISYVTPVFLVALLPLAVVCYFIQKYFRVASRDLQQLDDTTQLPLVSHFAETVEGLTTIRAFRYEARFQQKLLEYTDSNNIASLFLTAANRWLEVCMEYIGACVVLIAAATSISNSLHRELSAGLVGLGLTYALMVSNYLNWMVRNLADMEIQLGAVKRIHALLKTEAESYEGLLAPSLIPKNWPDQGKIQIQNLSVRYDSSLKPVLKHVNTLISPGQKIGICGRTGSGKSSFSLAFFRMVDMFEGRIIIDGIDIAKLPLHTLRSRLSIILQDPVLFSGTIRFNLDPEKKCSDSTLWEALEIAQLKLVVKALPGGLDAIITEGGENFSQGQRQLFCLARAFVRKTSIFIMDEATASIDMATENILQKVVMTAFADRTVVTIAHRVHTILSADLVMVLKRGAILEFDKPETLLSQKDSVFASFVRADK
Experimental: Source: Syrian hamster pancreatic beta cells HIT-T15
Ligand: 5 nM ^3H Glyburide
Incubation Time/Temp: 2 hours at 25° C.
Incubation Buffer: 50 mM MOPS, 0.1 mM CaCl2, pH 7.4
NonSpecific Ligand: 10 μM Glyburide
Quantitation Method: Radioligand Binding
Significance Criteria: ≧50% of max stimulation or inhibition

Edg-8 = biological target: T4, Edg-8 (Homo sapiens, UniProt Q9H228); experiment: Calcium mobilization assay (FLIPR), HTC cells expressing Edg 8; format: cell-based; settings: inhibition
T4 construct: expressed in transfected cells; host or cells: HTC rat hepatoma cells (from the earlier reading)
T4 sequence (Q9H228 whole entry): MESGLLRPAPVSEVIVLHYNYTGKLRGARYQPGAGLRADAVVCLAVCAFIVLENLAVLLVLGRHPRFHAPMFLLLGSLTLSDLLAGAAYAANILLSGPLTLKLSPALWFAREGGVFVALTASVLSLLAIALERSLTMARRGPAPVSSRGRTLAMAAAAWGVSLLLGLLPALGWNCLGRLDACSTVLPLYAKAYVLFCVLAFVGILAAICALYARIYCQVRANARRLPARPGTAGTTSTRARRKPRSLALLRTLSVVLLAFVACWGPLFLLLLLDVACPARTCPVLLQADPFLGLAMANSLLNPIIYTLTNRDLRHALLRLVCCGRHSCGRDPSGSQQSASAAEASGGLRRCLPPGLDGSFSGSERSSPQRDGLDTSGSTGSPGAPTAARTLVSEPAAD

HUVEC cells = experiment: Migration assay, SIP induced chemotaxis; format: cell-based, human; settings: FIG. 10
Experimental: Cells were plated in a 24 well format using Fluoroblok filter insert plates ([…]) or Fluoroblok matrigel coated filter insert plates (Becton Dickinson, San Diego, Calif.). The assay was a modified Boyden Chamber assay in which a cell suspension (1 ×10^5 cells/ml) was prepared in serum free medium and added to the top chamber. LPA or SIP (doses ranged from 0.1-10 μM in serum free medium) was added to the bottom chamber. Following a 20-24 hour incubation period, the number of cells migrating or invading into the lower chamber was quantitated by transferring the filter insert into a fresh 24-well plate containing 4 μg/ml calcein AM (Molecular Probes, Sunnyvale, Calif.) in Hank's Balanced Salt Solution and staining for one hour.
Detection was via fluorescent readout at 450 nm excitation/530 nm emission using a fluorimeter. The level of fluorescence correlated with cell number.

Edg-1 = biological target: T5, Edg-1 (Homo sapiens, UniProt P21453); experiment: Calcium mobilization assay (FLIPR), HTC cells expressing Edg 1; format: cell-based; settings: inhibition
T5 construct: expressed in transfected cells; host or cells: HTC rat hepatoma cells (from the earlier reading)
T5 sequence (P21453 whole entry): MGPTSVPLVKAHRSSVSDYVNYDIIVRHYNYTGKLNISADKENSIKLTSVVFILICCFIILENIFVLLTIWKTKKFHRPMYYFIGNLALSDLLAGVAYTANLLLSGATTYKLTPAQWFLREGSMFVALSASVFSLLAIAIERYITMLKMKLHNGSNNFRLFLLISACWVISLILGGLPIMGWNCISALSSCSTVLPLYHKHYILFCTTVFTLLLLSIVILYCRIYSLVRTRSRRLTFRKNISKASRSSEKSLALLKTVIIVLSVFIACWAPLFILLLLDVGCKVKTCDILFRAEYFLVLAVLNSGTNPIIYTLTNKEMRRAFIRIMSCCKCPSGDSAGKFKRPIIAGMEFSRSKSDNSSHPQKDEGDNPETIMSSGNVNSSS

human Edg-4 receptor [2] = biological target: T6, human Edg-4 receptor (Homo sapiens, UniProt Q9HBW0); experiment: Calcium mobilization assay (FLIPR), HTC rat hepatoma cells transfected with human Edg-4; format: cell-based
T6 construct: IC50 Edg-4; other: agonist, calcium mobilization; potency relative to compound 101; calcium response (agonist)
T6 sequence (Q9HBW0 1-340 limits assumed): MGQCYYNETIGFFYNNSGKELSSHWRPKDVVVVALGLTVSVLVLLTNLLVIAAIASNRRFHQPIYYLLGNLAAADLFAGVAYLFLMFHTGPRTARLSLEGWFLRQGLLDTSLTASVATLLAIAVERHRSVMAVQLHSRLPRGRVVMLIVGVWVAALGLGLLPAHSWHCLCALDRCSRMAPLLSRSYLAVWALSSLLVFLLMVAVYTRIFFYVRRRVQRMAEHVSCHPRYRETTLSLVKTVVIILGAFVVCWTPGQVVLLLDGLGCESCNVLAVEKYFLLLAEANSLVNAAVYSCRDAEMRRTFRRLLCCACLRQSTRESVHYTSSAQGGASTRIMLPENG
Text: as §1

Edg-2 = biological target: T7, Edg-2 (Homo sapiens, UniProt Q92633); experiment: Calcium mobilization assay (FLIPR), HTC cells expressing Edg 2; format: cell-based; settings: inhibition
T7 construct: expressed in transfected cells; host or cells: HTC rat hepatoma cells (from the earlier reading)
T7 sequence (Q92633 whole entry): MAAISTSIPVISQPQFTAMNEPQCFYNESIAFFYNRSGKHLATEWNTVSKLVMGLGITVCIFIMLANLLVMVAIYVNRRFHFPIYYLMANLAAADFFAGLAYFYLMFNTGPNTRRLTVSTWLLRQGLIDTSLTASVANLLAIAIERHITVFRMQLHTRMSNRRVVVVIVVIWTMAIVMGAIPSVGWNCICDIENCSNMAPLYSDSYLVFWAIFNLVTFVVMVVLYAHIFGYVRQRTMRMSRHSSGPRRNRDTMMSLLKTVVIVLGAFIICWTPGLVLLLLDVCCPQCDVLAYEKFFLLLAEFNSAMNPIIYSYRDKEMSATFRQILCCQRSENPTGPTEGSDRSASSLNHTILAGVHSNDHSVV

Edg-6 = biological target: T8, Edg-6 (Homo sapiens, UniProt O95977); experiment: Calcium mobilization assay (FLIPR), HTC cells expressing Edg 6; format: cell-based; settings: inhibition
T8 construct: expressed in transfected cells; host or cells: HTC rat hepatoma cells (from the earlier reading)
T8 sequence (O95977 1-384): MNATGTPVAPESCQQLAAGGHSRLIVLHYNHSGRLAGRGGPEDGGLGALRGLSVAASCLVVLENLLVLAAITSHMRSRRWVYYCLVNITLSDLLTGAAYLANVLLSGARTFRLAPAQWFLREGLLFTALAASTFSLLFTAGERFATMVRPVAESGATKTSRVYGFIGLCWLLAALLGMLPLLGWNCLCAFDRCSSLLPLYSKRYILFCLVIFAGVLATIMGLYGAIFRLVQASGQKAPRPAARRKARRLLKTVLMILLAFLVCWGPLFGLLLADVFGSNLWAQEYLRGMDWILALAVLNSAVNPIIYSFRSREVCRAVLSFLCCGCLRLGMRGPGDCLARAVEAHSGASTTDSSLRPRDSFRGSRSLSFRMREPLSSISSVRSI

Edg-3 = biological target: T9, Edg-3 (Homo sapiens, UniProt Q99500); experiment: Calcium mobilization assay (FLIPR), HTC cells expressing Edg 3; format: cell-based; settings: inhibition
T9 construct: expressed in transfected cells; host or cells: HTC rat hepatoma cells (from the earlier reading)
T9 sequence (Q99500 whole entry): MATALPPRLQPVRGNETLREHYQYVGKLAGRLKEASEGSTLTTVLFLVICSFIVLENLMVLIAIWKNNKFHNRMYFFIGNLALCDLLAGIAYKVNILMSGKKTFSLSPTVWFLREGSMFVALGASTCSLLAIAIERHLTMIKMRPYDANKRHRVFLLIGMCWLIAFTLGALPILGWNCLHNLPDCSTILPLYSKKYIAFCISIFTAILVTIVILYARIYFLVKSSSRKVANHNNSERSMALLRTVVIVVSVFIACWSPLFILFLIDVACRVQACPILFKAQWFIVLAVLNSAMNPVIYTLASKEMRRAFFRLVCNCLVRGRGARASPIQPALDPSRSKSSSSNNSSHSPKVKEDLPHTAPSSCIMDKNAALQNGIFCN

Edg-5 = biological target: T10, Edg-5 (Homo sapiens, UniProt O95136); experiment: Calcium mobilization assay (FLIPR), HTC cells expressing Edg 5; format: cell-based; settings: inhibition
T10 construct: expressed in transfected cells; host or cells: HTC rat hepatoma cells (from the earlier reading)
T10 sequence (O95136 whole entry): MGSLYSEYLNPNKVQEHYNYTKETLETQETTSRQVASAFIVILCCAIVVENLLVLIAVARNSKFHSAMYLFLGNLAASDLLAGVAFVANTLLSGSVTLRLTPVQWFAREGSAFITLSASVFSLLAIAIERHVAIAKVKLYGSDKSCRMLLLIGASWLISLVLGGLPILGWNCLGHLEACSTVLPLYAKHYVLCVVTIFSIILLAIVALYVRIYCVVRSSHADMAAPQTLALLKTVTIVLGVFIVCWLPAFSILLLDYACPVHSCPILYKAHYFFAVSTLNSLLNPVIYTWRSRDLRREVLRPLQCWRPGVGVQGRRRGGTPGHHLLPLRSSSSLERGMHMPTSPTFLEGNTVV

Edg-7 = biological target: T11, Edg-7 (Homo sapiens, UniProt Q9UBY5); experiment: Calcium mobilization assay (FLIPR), HTC cells expressing Edg 7; format: cell-based; settings: inhibition, calcium mobilization
T11 construct: expressed in transfected cells; host or cells: HTC rat hepatoma cells (from the earlier reading)
T11 sequence (Q9UBY5 1-353): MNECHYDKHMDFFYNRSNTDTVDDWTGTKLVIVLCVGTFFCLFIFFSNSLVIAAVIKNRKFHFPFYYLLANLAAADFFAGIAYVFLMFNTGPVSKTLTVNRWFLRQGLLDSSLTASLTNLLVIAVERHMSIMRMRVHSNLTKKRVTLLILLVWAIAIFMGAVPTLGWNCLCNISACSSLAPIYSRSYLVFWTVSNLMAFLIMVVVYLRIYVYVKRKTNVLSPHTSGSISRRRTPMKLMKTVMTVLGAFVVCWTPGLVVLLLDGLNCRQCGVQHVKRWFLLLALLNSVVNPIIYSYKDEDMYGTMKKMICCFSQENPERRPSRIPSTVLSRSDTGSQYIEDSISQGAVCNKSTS

mouse Edg-4 receptor = biological target: T12, mouse Edg-4 receptor (Mus musculus, UniProt Q9JL06); experiment: LPA induced calcium mobilization, HTC cells transfected with pooled mouse Edg-4 clones; format: cell-based; settings: pooled HTC population, FIG. 13
T12 construct: expressed in transfected cells; host or cells: HTC rat hepatoma cells, pooled population
T12 sequence (Q9JL06 whole entry): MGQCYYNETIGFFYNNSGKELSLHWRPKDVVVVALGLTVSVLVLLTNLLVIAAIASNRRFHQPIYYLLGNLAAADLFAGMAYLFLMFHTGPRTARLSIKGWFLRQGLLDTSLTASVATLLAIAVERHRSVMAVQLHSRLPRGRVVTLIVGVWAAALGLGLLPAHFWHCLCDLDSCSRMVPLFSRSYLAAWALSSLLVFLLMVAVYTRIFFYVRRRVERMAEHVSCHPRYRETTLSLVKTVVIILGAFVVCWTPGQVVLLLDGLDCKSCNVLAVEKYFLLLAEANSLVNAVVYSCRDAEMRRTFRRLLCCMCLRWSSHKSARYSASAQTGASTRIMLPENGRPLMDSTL
Text: as §1

rat Edg-4 receptor = experiment: LPA induced calcium mobilization, HTC cells transfected with pooled rat Edg-4 clones; format: cell-based; settings: pooled HTC population, FIG. 12
Text: as §1

O=C1NN=C(c2ccccc2)C(c2c[nH]c3ccccc23)N1 (single isomer, unassigned; (+)) [(+)-121, (+)-5-(1H-Indol-3-yl)-6-phenyl-4,5-dihydro-2H-[1,2,4]triazin-3-one]
melting point: 281 °C

O=C(CC(=O)C(F)(F)F)Nc1cc(-c2ccccc2)n[nH]1 [Compound 101, 4,4,4-trifluoro-3-oxo-N-(5-phenyl-2H-pyrazol-3-yl)-butyramide]
activity at PLA2-II (PLA2-II): no significant activity | activity at PLC (PLC): no significant activity | Fold-selectivity for Edg-4 (IC50) (human Edg-4 receptor [1]): >29.9 | activity at Potassium channel [KATP] (Potassium channel [KATP]): no significant activity

O=C(CC(=O)C(F)(F)F)Nc1cc(-c2ccc(Cl)c(Cl)c2)n[nH]1 [Compound 103, N-[5-(3,4-dichloro-phenyl)-2H-pyrazol-3-yl]4,4,4-trifluoro-3-oxo-butyramide]
IC50 (Edg-8): > 20 µM | inhibition of SIP induced chemotaxis (HUVEC cells): did not inhibit | IC50 (Edg-1): > 20 µM | IC50 (human Edg-4 receptor [2]; inhibition, calcium mobilization): 0.32 µM | Fold-selectivity for Edg-4 (IC50) (human Edg-4 receptor [1]): >62.5 | IC50 (Edg-2): > 20 µM | IC50 (Edg-6): > 20 µM | IC50 (Edg-3): > 20 µM | IC50 (Edg-5): > 20 µM | IC50 (Edg-7): > 20 µM

COc1ccc(-c2cc(NC(=O)CC(=O)C(F)(F)F)[nH]n2)cc1 [Compound 105, 4,4-4-trifluoro-N-[5-(4-methoxy-phenyl)-2-pyrazol-3-yl]-3-oxo-butyramide]
potency relative to compound 101 (human Edg-4 receptor [2]; dose response curve, FIG. 2): less potent than compound 101

O=C(CC(=O)C(F)(F)F)Nc1cc(-c2ccc(F)cc2)n[nH]1 [Compound 107]
inhibition of LPA-induced calcium mobilization, human Edg-4 (human Edg-4 receptor [2]; clonal HTC cell line, FIG. 11): dose dependent inhibition | inhibition of LPA-induced calcium mobilization, mouse Edg-4 (mouse Edg-4 receptor): dose dependent inhibition | inhibition of LPA-induced calcium mobilization, rat Edg-4 (rat Edg-4 receptor): dose dependent inhibition

From patent US20050113283A1, “Methods of treating conditions associated with an EDG-4 receptor” (priority 2002, published 2005)
